Starred links: 1 amine or outer side, 2 acyl side, 3 side chain; linkers in the order of their positions; H or OH if unused. Non-standard residues stand in square brackets, D forms with d. Residues, ends and D or L forms follow the SMILES beside them. Groups on a side chain read outwards from the residue. *: point of attachment. C18 diacid = O=C(O)CCCCCCCCCCCCCCCCC(=O)*; γGlu = O=C(O)[C@H](CCC(=O)[*:2])N[*:1]; αMeF = C[C@](N)(Cc1ccccc1)C(=O)O; AEEA = NCCOCCOCC(=O)O; Aib = CC(C)(N)C(=O)O
Experiments:
[1] = target: human GLP-1 receptor (hGLP-1R) (Homo sapiens, UniProt P43220); test: cAMP production (HTRF) in CHO cells expressing hGLP-1R; type: cell-based; set-up: expressed in transfected cells; settings: for EC50: Table 6, peptides modified at position 17, cAMP in CHO hGLP-1R cells, geometric mean, read-out: hGLP-1R EC50; for % Relative Potency Ratio: Table 6, % GLP-1R activity relative to GLP-1 / % GlucR activity relative to glucagon
How it was run: (§1)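 Read-out: HTRF cAMP (anti-cAMP cryptate donor, cAMP-d2 acceptor in conjugate/lysis buffer), converted to % Delta F and fitted by 4-parameter logistic for EC50. Cell densities were 1×10^5 cells/mL (hGLP-1R) or 2×10^5 cells/mL (hGCGR). Stimulation lasted 30 min at room temperature.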

[2] = target: human glucagon receptor (hGCGR) (Homo sapiens, UniProt P47871); test: cAMP production (HTRF) in CHO cells expressing hGCGR; type: cell-based; set-up: expressed in transfected cells; settings: Table 6, peptides modified at position 17; cAMP in CHO hGCGR cells; geometric mean; read-out: hGluc-R EC50
How it was run: as §1

Sequence of human GLP-1 receptor (hGLP-1R) (P43220 24-463): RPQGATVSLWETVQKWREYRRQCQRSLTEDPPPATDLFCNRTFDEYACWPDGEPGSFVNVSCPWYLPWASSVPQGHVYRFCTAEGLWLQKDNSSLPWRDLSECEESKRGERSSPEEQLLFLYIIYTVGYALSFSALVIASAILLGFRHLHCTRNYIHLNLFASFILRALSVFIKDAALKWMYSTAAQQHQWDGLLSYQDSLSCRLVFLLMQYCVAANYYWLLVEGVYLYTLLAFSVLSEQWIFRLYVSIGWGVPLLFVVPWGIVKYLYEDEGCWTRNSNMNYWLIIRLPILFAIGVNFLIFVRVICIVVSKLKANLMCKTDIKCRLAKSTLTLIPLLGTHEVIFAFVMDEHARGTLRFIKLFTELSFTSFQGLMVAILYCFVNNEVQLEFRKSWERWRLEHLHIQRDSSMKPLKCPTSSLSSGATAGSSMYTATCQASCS
Sequence of human glucagon receptor (hGCGR) (P47871 26-477): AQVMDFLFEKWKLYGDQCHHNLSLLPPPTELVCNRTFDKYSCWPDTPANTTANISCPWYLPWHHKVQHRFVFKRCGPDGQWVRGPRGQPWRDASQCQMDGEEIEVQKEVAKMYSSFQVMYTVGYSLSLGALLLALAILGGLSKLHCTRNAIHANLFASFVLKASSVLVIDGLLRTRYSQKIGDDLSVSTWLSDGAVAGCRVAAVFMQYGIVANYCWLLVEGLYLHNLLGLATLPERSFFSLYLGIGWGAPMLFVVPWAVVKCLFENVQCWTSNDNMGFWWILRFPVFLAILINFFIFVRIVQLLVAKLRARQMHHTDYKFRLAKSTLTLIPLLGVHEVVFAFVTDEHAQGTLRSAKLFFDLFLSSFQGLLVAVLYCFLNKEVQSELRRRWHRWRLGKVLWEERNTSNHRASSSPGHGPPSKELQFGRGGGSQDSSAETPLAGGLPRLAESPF

Compound	EC50 [1]	% Relative Potency Ratio [1]	EC50 [2]
CC(C)C[C@H](NC(=O)[C@H](Cc1c[nH]c2ccccc12)NC(=O)[C@H](CCC(N)=O)NC(=O)[C@@H](NC(=O)[C@H](Cc1ccccc1)NC(=O)[C@H](CC(=O)O)NC(=O)[C@H](CCCNC(=N)N)NC(=O)[C@H](C)NC(=O)[C@H](CCCNC(=N)N)NC(=O)[C@H](CCCCNC(=O)COCCOCCNC(=O)COCCOCCNC(=O)CC[C@H](NC(=O)CCCCCCCCCCCCCCCCCCC(=O)O)C(=O)O)NC(=O)[C@@H](NC(=O)[C@H](CC(=O)O)NC(=O)[C@H](CC(C)C)NC(=O)[C@](C)(Cc1ccccc1)NC(=O)[C@H](CCCCN)NC(=O)[C@H](CO)NC(=O)[C@@H](NC(=O)[C@H](CC(=O)O)NC(=O)[C@H](CO)NC(=O)[C@@H](NC(=O)[C@H](Cc1ccccc1)NC(=O)[C@@H](NC(=O)CNC(=O)[C@H](CCC(N)=O)NC(=O)C(C)(C)NC(=O)[C@@H](N)Cc1c[nH]cn1)[C@@H](C)O)[C@@H](C)O)C(C)C)[C@@H](C)O)C(C)C)C(=O)N[C@@H](CC(C)C)C(=O)N[C@@H](CCC(=O)O)C(=O)NC(C)(C)C(=O)NCC(N)=O [Peptide 457]	109 pM	3.7	203 pM
CC(C)C[C@H](NC(=O)[C@H](Cc1c[nH]c2ccccc12)NC(=O)[C@H](CCC(N)=O)NC(=O)[C@@H](NC(=O)[C@H](Cc1ccccc1)NC(=O)[C@H](CC(=O)O)NC(=O)[C@H](CCCNC(=N)N)NC(=O)[C@H](C)NC(=O)[C@H](CCCNC(=N)N)NC(=O)[C@H](CCCCNC(=O)COCCOCCNC(=O)COCCOCCNC(=O)CC[C@H](NC(=O)CC[C@H](NC(=O)CCCCCCCCCCCCCCCCCCC(=O)O)C(=O)O)C(=O)O)NC(=O)[C@@H](NC(=O)[C@H](CC(=O)O)NC(=O)[C@H](CC(C)C)NC(=O)[C@](C)(Cc1ccccc1)NC(=O)[C@H](CCCCN)NC(=O)[C@H](CO)NC(=O)[C@@H](NC(=O)[C@H](CC(=O)O)NC(=O)[C@H](CO)NC(=O)[C@@H](NC(=O)[C@H](Cc1ccccc1)NC(=O)[C@@H](NC(=O)CNC(=O)[C@H](CCC(N)=O)NC(=O)C(C)(C)NC(=O)[C@@H](N)Cc1c[nH]cn1)[C@@H](C)O)[C@@H](C)O)C(C)C)[C@@H](C)O)C(C)C)C(=O)N[C@@H](CC(C)C)C(=O)N[C@@H](CCC(=O)O)C(=O)NC(C)(C)C(=O)NCC(N)=O [Peptide 458]	114 pM	6.7	385 pM
CC(C)C[C@H](NC(=O)[C@H](CC(C)C)NC(=O)[C@H](Cc1c[nH]c2ccccc12)NC(=O)[C@H](CCCNC(=N)N)NC(=O)[C@@H](NC(=O)[C@H](Cc1ccccc1)NC(=O)[C@H](CC(=O)O)NC(=O)[C@H](CCC(N)=O)NC(=O)[C@H](C)NC(=O)[C@H](CCCNC(=N)N)NC(=O)[C@H](CCCCNC(=O)COCCOCCNC(=O)COCCOCCNC(=O)CC[C@H](NC(=O)CCCCCCCCCCCCCCCCC(=O)O)C(=O)O)NC(=O)[C@H](CCCCN)NC(=O)[C@H](CC(=O)O)NC(=O)[C@H](CC(C)C)NC(=O)[C@](C)(Cc1ccccc1)NC(=O)[C@H](CCCCN)NC(=O)[C@H](CO)NC(=O)[C@@H](NC(=O)[C@H](CC(=O)O)NC(=O)[C@H](CO)NC(=O)[C@@H](NC(=O)[C@H](Cc1ccccc1)NC(=O)[C@@H](NC(=O)CNC(=O)[C@H](CCC(N)=O)NC(=O)C(C)(C)NC(=O)[C@@H](N)Cc1c[nH]cn1)[C@@H](C)O)[C@@H](C)O)C(C)C)C(C)C)C(=O)N[C@@H](C)C(=O)N[C@@H](CCC(=O)O)C(N)=O [Peptide 459] (H-H[Aib]QGTFTSDVSK[αMeF]LDKK([AEEA-AEEA-γGlu-C18 diacid])RAQDFVRWLLAE-NH2)	32.7 pM	2.2	36.9 pM
CC(C)C[C@H](NC(=O)[C@H](CC(C)C)NC(=O)[C@H](Cc1c[nH]c2ccccc12)NC(=O)[C@H](CCCNC(=N)N)NC(=O)[C@@H](NC(=O)[C@H](Cc1ccccc1)NC(=O)[C@H](CC(=O)O)NC(=O)[C@H](CCC(N)=O)NC(=O)[C@H](C)NC(=O)[C@H](CCCNC(=N)N)NC(=O)[C@H](CCCCNC(=O)COCCOCCNC(=O)COCCOCCNC(=O)CC[C@H](NC(=O)CCCCCCCCCCCCCCCCCCC(=O)O)C(=O)O)NC(=O)[C@H](CCCCN)NC(=O)[C@H](CC(=O)O)NC(=O)[C@H](CC(C)C)NC(=O)[C@](C)(Cc1ccccc1)NC(=O)[C@H](CCCCN)NC(=O)[C@H](CO)NC(=O)[C@@H](NC(=O)[C@H](CC(=O)O)NC(=O)[C@H](CO)NC(=O)[C@@H](NC(=O)[C@H](Cc1ccccc1)NC(=O)[C@@H](NC(=O)CNC(=O)[C@H](CCC(N)=O)NC(=O)C(C)(C)NC(=O)[C@@H](N)Cc1c[nH]cn1)[C@@H](C)O)[C@@H](C)O)C(C)C)C(C)C)C(=O)N[C@@H](C)C(=O)N[C@@H](CCC(=O)O)C(N)=O [Peptide 460]	117 pM	1.1	66.5 pM
CC(C)C[C@H](NC(=O)[C@H](CC(C)C)NC(=O)[C@H](Cc1c[nH]c2ccccc12)NC(=O)[C@H](CCC(N)=O)NC(=O)[C@@H](NC(=O)[C@H](Cc1ccccc1)NC(=O)[C@H](CC(=O)O)NC(=O)[C@H](CCCNC(=N)N)NC(=O)[C@H](C)NC(=O)[C@H](CCCNC(=N)N)NC(=O)[C@H](CCCCNC(=O)COCCOCCNC(=O)COCCOCCNC(=O)CC[C@H](NC(=O)CCCCCCCCCCCCCCCCC(=O)O)C(=O)O)NC(=O)[C@@H](NC(=O)[C@H](CC(=O)O)NC(=O)[C@H](CC(C)C)NC(=O)[C@](C)(Cc1ccccc1)NC(=O)[C@H](CCCCN)NC(=O)[C@H](CO)NC(=O)[C@@H](NC(=O)[C@H](CC(=O)O)NC(=O)[C@H](CO)NC(=O)[C@@H](NC(=O)[C@H](Cc1ccccc1)NC(=O)[C@@H](NC(=O)CNC(=O)[C@H](CCC(N)=O)NC(=O)C(C)(C)NC(=O)[C@@H](N)Cc1c[nH]cn1)[C@@H](C)O)[C@@H](C)O)C(C)C)[C@@H](C)O)C(C)C)C(=O)N[C@@H](CCC(=O)O)C(=O)N[C@@H](C)C(=O)NCC(=O)O [Peptide 462] (H-H[Aib]QGTFTSDVSK[αMeF]LDTK([AEEA-AEEA-γGlu-C18 diacid])RARDFVQWLLEAG-OH; N-terminus assumed)	39.5 pM	4.5	89.2 pM
CC(C)C[C@H](NC(=O)[C@H](CC(=O)O)NC(=O)[C@H](CC(C)C)NC(=O)[C@](C)(Cc1ccccc1)NC(=O)[C@H](CCCCN)NC(=O)[C@H](CO)NC(=O)[C@@H](NC(=O)[C@H](CC(=O)O)NC(=O)[C@H](CO)NC(=O)[C@@H](NC(=O)[C@H](Cc1ccccc1)NC(=O)[C@@H](NC(=O)CNC(=O)[C@H](CCC(N)=O)NC(=O)C(C)(C)NC(=O)[C@@H](N)Cc1c[nH]cn1)[C@@H](C)O)[C@@H](C)O)C(C)C)C(=O)N[C@@H](CCCCNC(=O)COCCOCCNC(=O)COCCOCCNC(=O)CC[C@H](NC(=O)CC[C@H](NC(=O)CCCCCCCCCCCCCCCCC(=O)O)C(=O)O)C(=O)O)C(=O)N[C@@H](CCCNC(=N)N)C(=O)N[C@@H](C)C(=O)N[C@@H](CCC(N)=O)C(=O)N[C@@H](CC(=O)O)C(=O)N[C@@H](Cc1ccccc1)C(=O)N[C@H](C(=O)N[C@@H](CCC(N)=O)C(=O)N[C@@H](Cc1c[nH]c2ccccc12)C(=O)N[C@@H](CC(C)C)C(=O)N[C@@H](CC(C)C)C(=O)NC(C)(C)C(=O)N[C@H](C(=O)O)[C@@H](C)O)C(C)C [Peptide 465] (H-H[Aib]QGTFTSDVSK[αMeF]LDLK([AEEA-AEEA-γGlu-γGlu-C18 diacid])RAQDFVQWLL[Aib]T-OH; N-terminus assumed)	485 pM	1.8	436 pM
CC(C)C[C@H](NC(=O)[C@H](Cc1c[nH]c2ccccc12)NC(=O)[C@H](CCC(N)=O)NC(=O)[C@@H](NC(=O)[C@H](Cc1ccccc1)NC(=O)[C@H](CC(=O)O)NC(=O)[C@H](CCC(N)=O)NC(=O)[C@H](C)NC(=O)[C@H](CCCNC(=N)N)NC(=O)[C@H](CCCCNC(=O)COCCOCCNC(=O)COCCOCCNC(=O)CC[C@H](NC(=O)CCCCCCCCCCCCCCCCC(=O)O)C(=O)O)NC(=O)[C@@H](NC(=O)[C@H](CC(=O)O)NC(=O)[C@H](CC(C)C)NC(=O)[C@](C)(Cc1ccccc1)NC(=O)[C@H](CCCCN)NC(=O)[C@H](CO)NC(=O)[C@@H](NC(=O)[C@H](CC(=O)O)NC(=O)[C@H](CO)NC(=O)[C@@H](NC(=O)[C@H](Cc1ccccc1)NC(=O)[C@@H](NC(=O)CNC(=O)[C@H](CCC(N)=O)NC(=O)C(C)(C)NC(=O)[C@@H](N)Cc1c[nH]cn1)[C@@H](C)O)[C@@H](C)O)C(C)C)[C@@H](C)O)C(C)C)C(=O)N[C@@H](CC(C)C)C(=O)N[C@@H](CCC(=O)O)C(=O)NC(C)(C)C(=O)NCC(N)=O [Peptide 466] (H-H[Aib]QGTFTSDVSK[αMeF]LDTK([AEEA-AEEA-γGlu-C18 diacid])RAQDFVQWLLE[Aib]G-NH2; N-terminus assumed)	35.6 pM	7.3	131 pM
CC(C)C[C@H](NC(=O)[C@H](Cc1c[nH]c2ccccc12)NC(=O)[C@H](CCC(N)=O)NC(=O)[C@@H](NC(=O)[C@H](Cc1ccccc1)NC(=O)[C@H](CC(=O)O)NC(=O)[C@H](CCC(N)=O)NC(=O)[C@H](C)NC(=O)[C@H](CCCNC(=N)N)NC(=O)[C@H](CCCCNC(=O)COCCOCCNC(=O)COCCOCCNC(=O)CC[C@H](NC(=O)CC[C@H](NC(=O)CCCCCCCCCCCCCCCCC(=O)O)C(=O)O)C(=O)O)NC(=O)[C@@H](NC(=O)[C@H](CC(=O)O)NC(=O)[C@H](CC(C)C)NC(=O)[C@](C)(Cc1ccccc1)NC(=O)[C@H](CCCCN)NC(=O)[C@H](CO)NC(=O)[C@@H](NC(=O)[C@H](CC(=O)O)NC(=O)[C@H](CO)NC(=O)[C@@H](NC(=O)[C@H](Cc1ccccc1)NC(=O)[C@@H](NC(=O)CNC(=O)[C@H](CCC(N)=O)NC(=O)C(C)(C)NC(=O)[C@@H](N)Cc1c[nH]cn1)[C@@H](C)O)[C@@H](C)O)C(C)C)[C@@H](C)O)C(C)C)C(=O)N[C@@H](CC(C)C)C(=O)N[C@@H](CCC(=O)O)C(=O)NC(C)(C)C(=O)NCC(N)=O [Peptide 468]	67.5 pM	8.6	292 pM

Reference: US20250353891A1 (MEDIMMUNE LIMITED, priority 2022, published 2025)
